System: ABCA1 mRNA
Experiment: ABCA1 mRNA induction in THP-1 cells, QuantiGene branched DNA assay
Type: cell-based
Details: 10 μM test compound, 18-20 hours; for fold induction at 10 µM: Homo sapiens, read-out: ABCA1 Induction Fold Increase over DMSO Vehicle
Description: Modulation of expression of ABCA1 mRNA levels by the compounds of the invention was determined in the following assays.
Induction of ABC1 in THP-1 cells, was measured using QuantiGene® branched DNA assay as per manufacturer's instructions. Cultures of THP-1 were grown to subconfluence in DMEM/10% FBS before replacement with DMEM/BSA and 10 and 3 μM concentrations of the test compounds in DMSO for 18-20 hours. After treatment of cells with compounds, the cells were lysed with lysis buffer at 37° C. for 20 minutes. The cell lysate and ABCA1 specific probe (Genospectra, Inc., Fremont, Calif.) mix were added to the 96 well capture plate and hybridized at 53° C. for 16-18 hours. The signal was amplified using the amplifier and label probes provided with the QuantiGene® assay followed by addition of a luminescent alkaline phosphatase substrate, dioxitane. Luminescence was quantified in Victor V plate reader.
Step 1 • Cells are lysed to release mRNA in the presence of target probes. Target mRNA from lysed cells was then captured by hybridization and transferred to the Capture Plate.
Step 2 • Signal amplification was performed by hybridization of the bDNA Amplifier and Label Probe.
Step 3 • Addition of chemiluminescence substrate yielded a QuantiGene® signal proportional to the amount of mRNA present in the sample.
Table 1 presents the relative fold increase in ABCA1 expression over DMSO for various compounds of the invention when tested at a concentration of […].

| SMILES | ABCA1 Induction Fold Increase over DMSO Vehicle | fold induction at 10 µM |
| --- | --- | --- |
| COc1cccc2c1[C@H]1Nc3ccc(-c4ccc(/C=C/C(=O)O)cc4)cc3C(C)(C)[C@H]1CO2 [Number 115, (2E)-3-[4-((12aS,6aR)-1-methoxy-7,7-dimethyl(7,12,12a,6a-tetrahydrochromano[4,3-b]quinolin-9-yl))phenyl]prop-2-enoic acid] | 2.2 FOLD INCREASE |  |
| COc1cccc2c1[C@H]1Nc3ccc(C(C)C)cc3C(C)(C)[C@H]1CO2 [Number 54, (12aS,6aR)-1-methoxy-7,7-dimethyl-9-(methylethyl)-7,12,12a,6a-tetrahydrochromano[4,3-b]quinoline] | 4.3 FOLD INCREASE |  |
| COc1cccc2c1[C@H]1Nc3ccc(-c4ccccc4)cc3C(C)(C)[C@@H]1CO2 [Number 94, (12aS,6aS)-1-methoxy-7,7-dimethyl-9-phenyl-7,12,12a,6a-tetrahydrochromano[4,3-b]quinoline] | 5.8 FOLD INCREASE |  |
| COc1cccc2c1OC[C@@H]1[C@H]2Nc2ccc(C(C)C)cc2C1(C)C [Number 46, (6aS,12aR)-4-methoxy-7,7-dimethyl-9-(methylethyl)-7,12,12a,6a-tetrahydrochromano[4,3-b]quinoline] | 4.2 FOLD INCREASE |  |
| COc1cccc2c1[C@H]1Nc3ccc(-c4ccc(CO)cc4)cc3C(C)(C)[C@@H]1CO2 [Number 98, [4-((12aS,6aS)-1-methoxy-7,7-dimethyl-7,12,12a,6a-tetrahydrochromano[4,3-b]quinolin-9-yl)phenyl]methan-1-ol] | 5.2 FOLD INCREASE |  |
| Cc1cccc2c1OCC1C2Nc2ccccc2C1(C)C (centres unmarked) [Number 31, 4,7,7-trimethyl-7,12,12a,6a-tetrahydrochromano[4,3-b]quinoline] | 5.5 FOLD INCREASE |  |
| COc1cccc2c1C1Nc3ccc(C(C)=O)cc3C(C)(C)C1CO2 (centres unmarked) [Number 43, 1-(1-methoxy-7,7-dimethyl-7,12,12a,6a-tetrahydrochromano[4,3-b]quinolin-9-yl)ethan-1-one] | 4.1 FOLD INCREASE |  |
| CCS(=O)(=O)N1CCN(C(=O)c2cnn(-c3ccc4c(c3)C(C)(C)[C@H]3COc5cccc(F)c5[C@H]3N4)c2C)CC1 [Number 144, 1-((6aR,12aS)-6a,7,12,12a-tetrahydro-1-fluoro-7,7-dimethyl-6H-chromeno[4,3-b]quinolin-9-yl)-5-methyl-1H-pyrazole-4-((4-ethanesulfonylpiperazin-1-yl)methanone)] | 2.1 FOLD INCREASE |  |
| COc1cccc2c1OC[C@@H]1[C@H]2Nc2ccc(OC(F)(F)F)cc2C1(C)C [Number 52, ((6aS,12aR)-4-methoxy-7,7-dimethyl(7,12,12a,6a-tetrahydrochromano[4,3-b]quinolin-9-yloxy))trifluoromethane] | 9.5 FOLD INCREASE |  |
| COc1cccc2c1[C@@H]1[C@H](CO2)C(C)(C)c2ccccc2N1C1CCCCC1 [Number 166, (6aR,12aS)-12-cyclohexyl-6a,7,12,12a-tetrahydro-1-methoxy-7,7-dimethyl-6H-chromeno[4,3-b]quinoline] |  | 12.5 |
| CC1(C)c2cc(C(O)(C(F)(F)F)C(F)(F)F)ccc2NC2c3cc(C(=O)O)ccc3OCC21 (centres unmarked) [Number 16, 7,7-dimethyl-9-[2,2,2-trifluoro-1-hydroxy-1-(trifluoromethyl)ethyl]-7,12,12a,6a-tetrahydrochromano[4,3-b]quinoline-2-carboxylic acid] | 2.4 FOLD INCREASE |  |
| COc1cccc2c1OC[C@H]1C2Nc2ccc(C(O)(C(F)(F)F)C(F)(F)F)cc2C1(C)C (stereo partly drawn) [Number 34, 2-((6aR)-4-methoxy-7,7-dimethyl(7,12,12a,6a-tetrahydrochromano[4,3-b]quinolin-9-yl))-1,1,1,3,3,3-hexafluoropropan-2-ol] | 4.5 FOLD INCREASE |  |
| COc1cccc2c1OCC1C2Nc2ccc(N3CCS(=O)(=O)CC3)cc2C1(C)C (centres unmarked) [Number 21, 4-(4-methoxy-7,7-dimethyl-7,12,12a,6a-tetrahydrochromano[4,3-b]quinolin-9-yl)-1,4-thiazaperhydroine-1,1-dione] | 5.6 FOLD INCREASE |  |
| COc1cccc2c1OC[C@@H]1[C@@H]2Nc2ccc(C(=O)N3CCOCC3)cc2C1(C)C [Number 120, ((6aS,12aS)-6a,7,12,12a-tetrahydro-4-methoxy-7,7-dimethyl-6H-chromeno[4,3-b]quinolin-9-yl)(morpholino)methanone] |  | 4.2 |
| COc1cccc2c1[C@@H]1[C@H](CO2)C(C)(C)c2ccccc2N1C(C)C [Number 155, (6aR,12aS)-6a,7,12,12a-tetrahydro-12-isopropyl-1-methoxy-7,7-dimethyl-6H-chromeno[4,3-b]quinoline] |  | 2.7 |
| COc1cccc2c1[C@H]1Nc3ccc(-c4ccc(F)cc4)cc3C(C)(C)[C@H]1CO2 [Number 109, (12aS,6aR)-9-(4-fluorophenyl)-1-methoxy-7,7-dimethyl-7,12,12a,6a-tetrahydrochromano[4,3-b]quinoline] | 4.1 FOLD INCREASE |  |
| CCCCN1c2ccccc2C(C)(C)[C@@H]2COc3cccc(OC)c3[C@H]21 [Number 175, (6aS,12aS)-12-butyl-6a,7,12,12a-tetrahydro-1-methoxy-7,7-dimethyl-6H-chromeno[4,3-b]quinoline] |  | 1.5 |
| COc1cccc2c1[C@H]1Nc3ccc(-c4cc[nH]n4)cc3C(C)(C)[C@H]1CO2 [Number 111, (12aS,6aR)-1-methoxy-7,7-dimethyl-9-pyrazol-3-yl-7,12,12a,6a-tetrahydrochromano[4,3-b]quinoline] | 4.7 FOLD INCREASE |  |
| COc1cccc2c1OC[C@H]1[C@@H]2Nc2ccc(Br)cc2C1(C)C [Number 86, (12aS,6aR)-9-bromo-4-methoxy-7,7-dimethyl-7,12,12a,6a-tetrahydrochromano[4,3-b]quinoline] | 8.4 FOLD INCREASE |  |
| Cc1cccc2c1OCC1C2Nc2ccc(C(O)(C(F)(F)F)C(F)(F)F)cc2C1(C)C (centres unmarked) [Number 18, 1,1,1,3,3,3-hexafluoro-2-(4,7,7-trimethyl(7,12,12a,6a-tetrahydrochromano[4,3-b]quinolin-9-yl))propan-2-ol] | 5.3 FOLD INCREASE |  |
| COc1cccc2c1[C@H]1Nc3ccc(OC(F)(F)F)cc3C(C)(C)[C@H]1CO2 [Number 57, ((12aS,6aR)-1-methoxy-7,7-dimethyl(7,12,12a,6a-tetrahydrochromano[4,3-b]quinolin-9-yloxy))trifluoromethane] | 6.1 FOLD INCREASE |  |
| COC(=O)c1ccc2c(c1)C(C)(C)[C@@H]1COc3c(OC)cc(Br)cc3[C@H]1N2 [Number 152, (6aS,12aS)-methyl 2-bromo-6a,7,12,12a-tetrahydro-4-methoxy-7,7-dimethyl-6H-chromeno[4,3-b]quinoline-9-carboxylate] |  | 6.1 |
| CCS(=O)(=O)N1CCN(C(=O)c2ccc3c(c2)C(C)(C)[C@@H]2COc4c(OC)cccc4[C@H]2N3)CC1 [Number 133, ((6aS,12aS)-4-methoxy-6a,7,12,12a-tetrahydro-7,7-dimethyl-6H-chromeno[4,3-b]quinolin-9-yl)(4-ethanesulfonylpiperazin-1-yl)methanone] |  | 3.8 |
